Assay results reported in patent publication US20050026133A1, “Cryopreservation medium for primate embryo stem cells and cryopreservation method” (ASAHI TECHNO GLASS CORPORATION, priority 2002, published 2005).

What was measured:
[1] = tested on: Cynomolgus monkey ES cells; assay: Alkaline phosphatase activity (ES cell marker) of post-thaw ES cells in culture, fluorometry with 4-methylumbelliferyl phosphate; assay type: cell-based; conditions: for alkaline phosphatase activity of post-thaw ES cells (successful cryopreservation): 8 days of culture
Experimental: Cynomolgus monkey ES cells were subcultured for 33 passages and dissociated into cell suspension from three 90-mm Petri dishes, and the cell suspension was centrifuged at 1,000 rpm for 5 minutes. The supernatant was removed to obtain a cell precipitate. The cell precipitate was resuspended in 1 ml of a cryopreservation medium containing 20% (V/V) [=22% (W/V)] of DMSO, 40% (V/V) of a serum replacement containing albumin, insulin and transferrin (Knockout Serum Replacement; Invitrogen) [hereinafter referred to as serum replacement (A)] and 40% (V/V) of DMEM:Ham F12=1:1 medium [hereinafter referred to as medium (A)] supplemented with 3 g/l of glucose, 0.5 g/l of CaCl2 0.15 g/l of MgSO4. The cell suspension was transferred to a serum tube, refrigerated to −80° C. at a rate of about 1° C./min in Mr. Frosty is (Nalgen) and then stored in a liquid nitrogen container for about 6 days. The cells were thawed, plated in 60-mm Petri dishes in duplicate and cultured in the medium described in Suemori et al. (2001 Dev. Dyn. Oct; 222(2):273-9). ES cell proliferation was investigated by following the time course of the activity of alkaline phosphatase, which is a marker of ES cells. After 3, 5 and 7 days, the medium was removed from the dishes by aspiration, and the cells were washed with 1 ml of 30 mM Hepes buffer containing 0.1 mg/l of CaCl2 and 0.1 mg/l of MgSO4(7H2O) and treated with 1 ml of 0.2 mM 4-methylumbelliferyl phosphate solution in the same buffer in an incubator at 37° C. for 1 hour. 0.8 ml portions of the reaction mixture were transferred to a 24-well microplate and analyzed by fluorometry at Ex355/Em460. Fluorescence per 1 ml was calculated and plotted. As a control, the alkaline phosphatase activity of the same feeder cells as used during subcultures of ES cells was measured.

[2] = tested on: Cynomolgus monkey ES cells; assay: Cell count per Petri dish of post-thaw ES cell culture after trypsinization; assay type: cell-based
Experimental: (§1) After 2, 4, 6 and 7 days, ES cell proliferation was assessed by alkaline phosphatase assay as described in Example 1. After 7 days of culture, the cells on each Petri dish was dissociated by tripsinization and counted.
as §1, with “8” for “7”, “counted. Colonies of 1 mm or larger formed on the Petri dishes for the respective concentrations were visually counted.” for “counted.”
(§2) After 2, 4, 6 and 8 days, ES cell proliferation was assessed by alkaline phosphatase assay as described in Example 1. After 8 days of culture, the cells on each Petri dish was dissociated by tripsinization and counted.
After 2, 4 and 6 days of culture, ES cell proliferation was assessed by alkaline phosphatase assay as described in Example 1. After 6 days of culture, the cells on each Petri dish was dissociated by tripsinization and counted.

[3] = tested on: Cynomolgus monkey ES cells; assay: Post-thaw ES cell colony formation, proliferation to subculturable stage, staining with Vector Red alkaline phosphatase substrate; assay type: cell-based
Experimental: After completion of the culture, the cells in each Petri dish were fixed with paraformaldehyde and ethanol and stained with Vector Red alkaline phosphatase substrate (Vector Labs).
After completion of the culture, the cells in each Petri dish were fixed with paraformaldehyde and ethanol and stained with vector Red alkaline phosphatase substrate (Vector Labs). […] Similar staining of the feeder cells gave no stained colonies (FIG. 11).
as §2, with “counted. Colonies of 1 mm or larger formed on the Petri dishes for the respective concentrations were visually counted.” for “counted.”

[4] = tested on: Cynomolgus monkey ES cells; assay: Differentiation potency of cryopreserved ES cells: teratoma formation after intraperitoneal injection into SCID mice; assay type: in vivo; conditions: Example 3; cells cryopreserved in 20% (V/V) [=22% (W/V)] DMSO, 40% serum replacement (A), 40% medium (A); 10 passages after thawing; 5×10^6 cells i.p. in SCID mice, about 6 weeks
Experimental: Cynomolgus monkey ES cells subcultured for 35 passages were harvested from three 90-mm Petri dishes and treated by a method similar to that employed in Example 1 to give a cell precipitate. The cell precipitate was resuspended in 1 ml of a cryopreservation medium consisting of 20% (V/V) [=22% (W/V)] of DMSO, 40% (V/V) of serum replacement (A), 40% (V/V) of medium (A). The cell suspension was transferred to a serum tube, refrigerated to −80° C. at a rate of about 1° C./min in Mr. Frosty (Nalgen) and stored in a liquid nitrogen container for 5 day. The cells were thawed and continuously subcultured in duplicate in 35-mm Petri dishes in the medium described in Suemori et al. (2001 Dev. Dyn. Oct;222(2);273-9). Differentiation potency was assessed after 10 passages. The cells were dissociated from the Petri dishes, and 5×10^6 cells were suspended in 0.5 ml of a phosphate buffer and intraperitoneally injected into SCID mice. The mice were fed for about 6 weeks, and teratomas were isolated from the abdomen.

[5] = tested on: embryonic stem cells and embryonic carcinoma cells; conditions: DMSO concentration of above 1% (W/V); cited from earlier work
chicken lung cells = conditions: DMSO or glycerin concentrations from 15 to 20%; cited from earlier work

C[S+](C)[O-] [DMSO, dimethyl sulfoxide]
alkaline phosphatase activity of post-thaw ES cells versus feeder cells ([1]; Example 1, cryopreservation medium with 20% (V/V) [=22% (W/V)] DMSO, 40% serum replacement (A), 40% medium (A), stored about 6 days, culture 3, 5, 7 days): significantly higher alkaline phosphatase activity than the feeder cells | alkaline phosphatase activity of post-thaw ES cells versus feeder cells ([1]; Example 2, 20% (V/V) [=22% (W/V)] DMSO, 40% serum replacement (A), 40% medium (A), stored 1 day, culture 2, 4, 6, 7 days): significantly higher alkaline phosphatase activity than the feeder cells | alkaline phosphatase activity of post-thaw ES cells versus feeder cells ([1]; Example 2 comparative, 10% (V/V) DMSO, 45% serum replacement (A), 45% medium (A), after 7 days): slightly exceeded the feeder cells in alkaline phosphatase activity | time course of alkaline phosphatase activity of post-thaw ES cells ([1]; Example 4, DMSO 12, 15, 20 or 30% (V/V) [13.2, 16.5, 22, 33% (W/V)], equal serum replacement (A) and medium (A), 2, 4, 6, 7 days): time-dependent increase in alkaline phosphatase activity | rate of increase of alkaline phosphatase activity versus comparative experiment (10% (V/V) DMSO) ([1]; Example 6, 20% (V/V) DMSO, storage cell densities 1.0, 2.0, 4.0×10^7 cells/2 ml, stored 18 days): alkaline phosphatase activity increased faster at any cell densities than in the comparative experiment | alkaline phosphatase activity of post-thaw ES cells ([1]; Example 7, 20% (V/V) DMSO with 10, 40 or 80% (V/V) serum replacement (A) or fetal bovine serum, 2, 4, 6, 7 days): alkaline phosphatase activity increased | rate of increase of alkaline phosphatase activity versus comparative experiment (10% (V/V) DMSO) ([1]; Example 8, 20% (V/V) [=22% (W/V)] DMSO, 20% serum replacement (A), 60% medium (A), 2, 4, 6 days): increased significantly faster | cell count per Petri dish in the 7 day culture versus comparative experiment (10% or 50% (V/V) DMSO) ([2]; Example 4, DMSO 15% (V/V) [=16.5% (W/V)] and 20% (V/V) [=22% (W/V)]): remarkably greater | cell count per Petri dish after 8 days of culture versus comparative experiment (10% (V/V) DMSO) ([2]; Example 6, 20% (V/V) DMSO, storage cell densities 1.0, 2.0, 4.0×10^7 cells/2 ml): greater than that in the comparative experiment | cryopreservation success by cell count per Petri dish after 7 days of culture ([2]; Example 7, 20% (V/V) DMSO with 10, 40 or 80% (V/V) serum replacement (A) or fetal bovine serum): Successful cryopreservation was confirmed at any supplement concentrations | cell count per Petri dish after 6 days of culture, 20% (V/V) DMSO relative to 10% (V/V) DMSO ([2]; Example 8, 20% serum replacement (A), 2.2×10^7 cells/2 ml, stored 1 day): 6 times | time after thawing until the cells could be subcultured ([3]; Example 1, 20% (V/V) DMSO, 40% serum replacement (A), 40% medium (A)): 1 week | colonies stained with Vector Red alkaline phosphatase substrate ([3]; Example 1, 20% (V/V) DMSO, after completion of the culture): numerous successfully stained colonies | ES cell proliferation and differentiated colonies after post-thaw passage ([3]; Example 1, 20% (V/V) DMSO, three-fold dilution followed by 3 days of subculture): successful proliferation of ES cells was observed without formation of differentiated colonies | ES cell proliferation and differentiated colonies after 7 days of prolonged culture ([3]; Example 2, 20% (V/V) DMSO): successful proliferation of ES cells was observed without formation of differentiated colonies | time after thawing until the cultures were able to be subcultured ([3]; Example 2, 20% (V/V) DMSO): 5 days | colonies stained with Vector Red alkaline phosphatase substrate ([3]; Example 2, 20% (V/V) DMSO, 7 days after thawing): numerous successfully stained colonies | ES cell proliferation after 7 days of prolonged culture ([3]; Example 2 comparative, 10% (V/V) DMSO): proliferation was recognized to a certain degree, though far below that of the cells in the illustrative experiment | reaching the subculturable stage after thawing ([3]; Example 2 comparative, 10% (V/V) DMSO, 5 days): could not reach the stage at which they were able to be subcultured after 5 days | colonies stained with Vector Red alkaline phosphatase substrate ([3]; Example 2 comparative, 10% (V/V) DMSO, 7 days after thawing): a few successfully stained colonies were observed | tissues found in teratomas (retention of pluripotency) [4]: formation of nerves, muscles and cartilage | time in culture at which cells begin to differentiate [5]: 4 days | viability of chicken lung cells (chicken lung cells): did not give high viabilities

OCC(O)CO [glycerin]
alkaline phosphatase activity of post-thaw ES cells (successful cryopreservation) ([1]; Example 5, glycerin 10, 20 or 30% (V/V) [12.6, 25.2, 37.8% (W/V)], 20% serum replacement (A), balance medium (A)): increase in alkaline phosphatase activity after 8 days of culture | alkaline phosphatase activity of post-thaw ES cells (successful cryopreservation) ([1]; Example 5 comparative, glycerin 5% (V/V) [=6.3% (W/V)]): all the glycerin concentrations but 5% (V/V) | cell count per Petri dish in the 8 day culture ([2]; Example 5, glycerin 10% (V/V) [=12.6% (W/V)] and 20% (V/V) [=25.2% (W/V)]): remarkably great | formation of ES cell colonies (1 mm or larger, visually counted) ([3]; Example 5, glycerin 10% (V/V) [=12.6% (W/V)] or above, 8 day culture): formation of ES cell colonies was confirmed | viability of chicken lung cells (chicken lung cells): did not give high viabilities
